These are literature values, as cited in patent US20060046268A1, “Diagnosis of anemia and optimizing treatment for heart repair” (Australian Stem Cell Centre Ltd., priority 2004, published 2006).

Molecules are shown by their SMILES.

The test system of the data set is renal transplant patients. Particulars: reversed upon ceasing administration of the drug, Vlahakos et al., Am J Kidney Dis 17:199-205.

Consider `CCOC(=O)[C@H](CCc1ccccc1)N[C@@H](C)C(=O)N1CCC[C@H]1C(=O)O` [Enalapril], for which the “anemia (impact on function of the hematopoietic system)” value is given as “reversible anemia”.
